Experimental data taken from US8791075B2, “Methods and compositions for inhibition of BCL6 repression” (Albert Einstein College of Medicine of Yeshiva University, priority 2008, dated 2014).
Square brackets hold non-standard residues; d marks the D form. Ends that are not written are not given here. Peptide text beside a SMILES is read from it.

Tested on: DLBCL cell lines known to be biologically dependent on BCL6 (ly1, Ly7 and Ly10)
Test: DLBCL cell growth inhibition, BCL6-dependent cell lines
Type: cell-based, human
Details: for anti-lymphoma activity: BCL6 dependent DLBCL cells, 48 h; for GI50: Ly1, Ly7, Ly10, 48 hr total amount, dose frequency as in Table 1
Description: DLBCL cell lines were grown at its respective concentration that were sufficient to keep the untreated cells in exponential growth over the 48 h peptide exposure time. Cell viability was determined by using a fluorometric resazurin reduction method (CellTiter-Blue, Promega) following the manufacturer instructions. The fluorescence (560Ex/590Em) was determined using the Polarstar Optima microplate reader (BMG Labtechnologies). The number of viable cells in each treated well was calculated by using the linear least-squares regression of the standard curve. Optical density was determined for 6 replicates per treatment condition or standard. Cell viability in peptide-treated cells was normalized to their respective controls. Cell viability was verified by the Sulforhodamine B assay (Sigma, Milwaukee, Wis.) following manufacturer's instructions with minor modifications for suspended cells. Experiments were carried out in triplicates and data are represented as percentage of growth inhibition to respective control with 95% confidence interval.
DLBCL cell growth inhibition was chosen as the most relevant screening assay to compare and contrast the biological activity of BPI and its derivatives. […] Growth inhibition was measured by a metabolic viability assay and verified by trypan blue exclusion and were performed in biological quintuplicates. […]

Row | Compound | anti-lymphoma activity | GI50 [µM] | also measured
1 | NH2-GLFGAIAGFIENGWEGMIDG-OH (H-GLFGAIAGFIENGWEGMIDG-OH) [Fu, reference compound] |  |  | effect on DLBCL viability (FIG. 8) (Ly1, Ly7 and Ly10, peptides administered every 4 h during a 48 h interval): little or no effect
2 | CC[C@@H](C)[C@@H](NC(=O)CNC(=O)[C@@H](CCCNC(=N)N)NC(=O)CNC(=O)CNC(=O)[C@@H](CCCNC(=N)N)NC(=O)[C@@H](CCCCN)NC(=O)[C@@H](CCCCN)NC(=O)[C@@H](CCCNC(=N)N)NC(=O)[C@@H](CCCNC(=N)N)NC(=O)[C@@H](CCC(N)=O)NC(=O)[C@@H](CCCNC(=N)N)NC(=O)[C@@H](CCCNC(=N)N)NC(=O)[C@@H](CCCNC(=N)N)NC(=O)CN)C(=O)N[C@H](CCC(=O)O)C(=O)N[C@H](Cc1c[nH]cn1)C(=O)N[C@@H](C(=O)N[C@H](CO)C(=O)N[C@H](CCCNC(=N)N)C(=O)NCC(=O)O)[C@H](C)CC [S7] (H-G[dR][dR][dR][dQ][dR][dR][dK][dK][dR]GG[dR]G[dI][dE][dH][dI][dS][dR]G-OH; N-terminus and C-terminus assumed) | significantly weaker |  | 
3 | YGRKKRRQRRRGGLVATVKEAGRSIHEIPREEL [S1] | not active |  | 
4 | G[dD][dI][dM]G[dE][dW]G[dN][dE][dI][dF]G[dA][dI][dA]G[dF][dL]GG[dR][dR][dR][dQ][dR][dR][dK][dK][dR]GGRSIHEIPRG [S4] |  | 14.4 | 
5 | YGRKKRRQRRRGGRSIHEIPRG [S2] |  | 21.7 | 
